Patent US7767398B2, “Means and methods for diagnosing and treating affective disorders” (Affectis Pharmaceuticals AG, priority 2003, dated 2010)

Experiments:
[1] = system: mice; test: Open field test (locomotor activity); details: 50 μM BzATP, 24 hours after injection, vs vehicle
Description: Locomotor activity was monitored for a period of 30 minutes using a video camera. Overall distance traveled by the animals during the testing period was then analysed by means of VideoMot2 computer software (TSE GmbH, Bad Homburg).

[2] = biological target: T1, P2X7R (Mus musculus, UniProt Q9Z1M0); test: Entry of ethidium bromide into HT-22 cells; format: cell-based; details: HT-22 cells, 60 minutes, 10^−4M ethidium bromide; 1 μM to 1 mM tested
T1 construct: an immortalised mouse hippocampal cell line expressing the endogenous P2X7 gene; endogenous in cells; host or cells: HT-22 mouse hippocampal cell line
T1 sequence (Q9Z1M0 1-595): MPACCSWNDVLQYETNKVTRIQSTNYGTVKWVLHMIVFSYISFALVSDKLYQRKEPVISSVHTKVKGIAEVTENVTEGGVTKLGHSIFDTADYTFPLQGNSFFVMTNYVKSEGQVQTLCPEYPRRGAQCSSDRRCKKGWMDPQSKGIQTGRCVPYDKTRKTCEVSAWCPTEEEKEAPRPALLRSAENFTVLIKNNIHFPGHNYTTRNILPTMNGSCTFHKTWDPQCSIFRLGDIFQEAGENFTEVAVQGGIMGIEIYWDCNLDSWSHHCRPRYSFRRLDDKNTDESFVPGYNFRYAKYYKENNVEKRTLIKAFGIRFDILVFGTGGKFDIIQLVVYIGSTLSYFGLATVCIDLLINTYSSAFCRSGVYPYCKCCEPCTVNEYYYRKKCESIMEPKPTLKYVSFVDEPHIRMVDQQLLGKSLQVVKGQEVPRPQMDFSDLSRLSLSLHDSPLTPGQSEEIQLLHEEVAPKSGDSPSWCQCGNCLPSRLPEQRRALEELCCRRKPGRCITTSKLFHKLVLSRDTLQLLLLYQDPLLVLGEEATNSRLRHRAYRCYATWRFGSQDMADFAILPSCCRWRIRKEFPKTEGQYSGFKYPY
Excerpt: Yet another method of measuring P2X7R activity involves the entry of ethidium bromide into P2X7R expressing cells. Activation of P2X7R by an agonist allows the entry of ethidium bromide which binds nuclear DNA and emits a fluorescence signal. Alternatively, the propidium dye YOPRO-1 can be substituted for ethidium bromide. An increase in fluorescence can be used as a measure of P2X7 receptor activation. Therefore, the assay can be used to test and quantify the effect of an agent or compound with agonist properties on P2X7R. In the present example, 10^3 HT-22 cells were seeded per well in a 96-well flat bottom microtitre plates and incubated at 37° C./5% CO2 in DMEM medium containing 10% FCS until the cells attached to the culture surface. […] The number of fluorescent cells which have integrated the ethidium bromide to the DNA can then be counted using a fluorescent microscope (Zeiss, Germany). […] Alternatively, ethidium bromide fluorescence can be measured using a Perkin-Elmer fluorescent plate reader (excitation 520 nm, emission 595 nm, slit widths: Ex 15 nm, Em 20 nm). From the readings obtained, a pIC50 figure can be calculated for each candidate agent or compound. […] The specificity of an agonist for P2X7R can be evaluated by pre-incubation of the cells for 60 minutes with 100 μM o-ATP before adding the agonist and ethidium bromide dye.

[3] = biological target: T2, human P2X7R (Homo sapiens, UniProt Q99572); test: Calcium entry in HT-22 cells overexpressing human P2X7R (Fluo-4 AM); format: cell-based; details: 20 μM BzATP or 50 μM tenidap
T2 construct: expressed in transfected cells
T2 sequence (Q99572 1-595): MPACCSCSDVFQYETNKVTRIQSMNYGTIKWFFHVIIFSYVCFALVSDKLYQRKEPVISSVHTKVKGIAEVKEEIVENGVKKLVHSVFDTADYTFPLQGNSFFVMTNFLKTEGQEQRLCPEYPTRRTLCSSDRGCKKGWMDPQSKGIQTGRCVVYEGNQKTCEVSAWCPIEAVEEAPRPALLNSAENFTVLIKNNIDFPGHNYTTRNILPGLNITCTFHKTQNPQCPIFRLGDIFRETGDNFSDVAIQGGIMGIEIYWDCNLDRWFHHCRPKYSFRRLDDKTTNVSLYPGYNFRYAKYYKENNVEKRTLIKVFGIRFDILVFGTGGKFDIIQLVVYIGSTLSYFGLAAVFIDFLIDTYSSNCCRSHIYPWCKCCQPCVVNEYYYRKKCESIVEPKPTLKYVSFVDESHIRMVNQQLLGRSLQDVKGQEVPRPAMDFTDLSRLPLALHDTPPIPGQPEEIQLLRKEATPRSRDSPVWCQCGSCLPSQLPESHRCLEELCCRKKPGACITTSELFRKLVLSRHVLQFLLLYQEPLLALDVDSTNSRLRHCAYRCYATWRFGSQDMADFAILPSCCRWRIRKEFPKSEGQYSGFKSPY
Excerpt: Yet another method for identifying P2X7R agonists was devised by generating a immortalised mouse cell line that overexpresses the human P2X7R gene under the control of the human cytomegalovirus (CMV) early promoter/enhancer region. The human P2X7R cDNA was inserted into the pcDNA3.1 vector (Invitrogen) and transfected into the mouse hippocampal cell line HT-22 using Lipofectamine (Invitrogen) according to the manufacturer's specifications. One day after transfection, culture medium containing 500 μg/ml G418 was added to the cells. Resistant clones were separately isolated and cultured 14 days after applying the selection medium.
The agonistic activity of a compound was evaluated by measuring calcium entry in the cells that overexpress the human P2X7R. Cells were cultured in 96 well plates and incubated at 37° C. with 5% C02 DMEM with 10% foetal calf serum (Gibco) until they reached confluence. Cells were then loaded for one hour with 10 μM of Fluo4 AM (Molecular Probes). Fluo-4 AM is a fluorescent dye that binds to intracellular calcium. […] Agonist activity was detected by measuring an increase in calcium influx which results in increased binding to Fluo4 AM and increased fluorescence. Changes in fluorescence signal are measured using a Fluostar Optima plate reader (BMG biotech). […] Thus, both compound stimulated the activity of P2X7R which results in an influx of ions into the cells.

Substance: 2′-3′-O-(4-Benzoylbenzoyl)adenosine 5′-triphosphate [BzATP]
- locomotor activity (overall distance traveled, 30 minutes) [1]: No difference in locomotor activity
- BzATP concentrations that increased the number of fluorescent nuclei [2]: above 100 μM
- calcium influx (Fluo-4 AM fluorescence intensity) [3]: rapid increase in fluorescence intensity
